Values quoted from earlier work, collected in US11504416B2, “Formulation with cannabinoids” (PAW POWER, INC., priority 2018, dated 2022).

Key:
[1] = intra-articular injection, high molecular weight (>5×10^6 Da)

Q: Which gastrointestinal absorption (administered orally) does the source give for `N[C@H]1C(O)O[C@H](CO)[C@@H](O)[C@@H]1O` (stereo partly shown) [Glucosamine] here?
A: readily absorbed

Q: And the “time to peak levels in the bloodstream” value (after oral ingestion)?
A: ≤ 8 h

Q: And the “tissue distribution of ingested glucosamine” value (oral ingestion)?
A: localizes to cartilage and joint tissues

Q: With hyaluronic acid as the compound, how does the “function in subjects with osteoarthritis or rheumatoid arthritis” value [1] read?
A: improves function
